Laboratory results published in patent US6713513B2, “Method for treating cartilage related diseases” (Juneng Industry Co., Ltd., priority 2001, dated 2004).
Marks after values point to notes of the source that are not given here.

What was measured:
[1] = test system: collagen I of chondrocyte; test: Immunohistochemical staining of collagen I (ABC method), chondrocytes, rats with retinoic acid osteoporosis; settings: for Positive Case Nos. of chondrocyte (collagen I immunohistochemical staining) / Positive percentage of collagen I by immunohistochemical staining, chondrocyte: 100 mg/kg body weight, 10 weeks
Description: (§4) Grouping of animals: 66 male 3-month-aged rats were used in the present test. Eight rats were randomly selected as blank-control group, which were fed with normal diet and tap water. The other 58 rats were randomly divided into 9 groups, and were continuously administered retinoic acid with a dosage of 70 mg/kg body weight and volume of 10 ml/kg body weight, and were fed with low calcium diet meanwhile. After two weeks of administration of retinoic acid, stop the drug and thus establishing osteoporosis models.
(§5) The rats were administered drugs for 10 weeks, respectively. During the whole test period, each group was fed with low calcium diet and de-ionized water except that the blank-control group was fed with normal diet. Then the lower one third of right femur of each rat was extracted, and preserved at −20° C.
Collagen I was immunohistochemically stained by ABC method, following the directions of kit. Collagen I was developed by DAB. The slide was routinely dehydrated and mounted. (The detection kit was provided by Wuhan Doctor Microbiologic Engineering Co. Ltd., China. Cat. No: BA0325)
The results were observed by microscopy, which was expressed by positive percentage. X2 test was conducted to the experimental data.

[2] = test system: bone tissue of the rat with osteoporosis caused by retinoic acid; test: Histochemical staining (M-S, T-B, HE, V-K silver) of bone and cartilage; settings: for Formation of new bone: compared with blank-control group; for Articular cartilage / cartilage matrix: blank-control group as normal reference; for Bone trabeculae in cancellous bone (figure legends): FIGS. 7, 13, 14
Description: as §4
(4) Calcium citrate group: 6 rats, administered calcium citrate with a dosage of 100 mg/kg body weight
(5) Sodium hydroxyethyl phosphate group: 6 rats, administered sodium hydroxyethyl phosphate with a dosage of 100 mg/kg body weight
as §5
(2) Histochemical Staining
a Masson-Goldner Lrichrone staining (M-S staining)
b Toluidine Blue staining (T-B staining)
c Hematoxylin-eosin (HE) staining
d Von Kossa silver staining of partial slice (V-K silver staining).

[3] = test system: mRNA of collagen I of osteocyte; test: Hybridization in situ of mRNA of collagen I, osteocytes, femur of rats with retinoic acid osteoporosis; format: in vivo, rat; settings: for Positive Case Nos. of osteocyte (mRNA of collagen I) / Positive percentage of mRNA of collagen I, osteocyte: 100 mg/kg body weight, 10 weeks
Description: (§1) The rats were administered drugs for 10 weeks, respectively.
(§2) Collagen I was stained by hybridization in situ, following the directions of the kit. After specific hybridization, mRNA of collagen I was developed by 3,3′-diaminobenzidine (DAB). The slide was routinely dehydrated and mounted.
(§3) X2 test was conducted to the experimental data.

[4] = test system: mRNA of collagen I of chondrocyte; test: Hybridization in situ of mRNA of collagen I, chondrocytes, femur of rats with retinoic acid osteoporosis; format: in vivo, rat
Description: as §1, §2, §3

[5] = 100 mg/kg body weight, 10 weeks

O=C([O-])CC(O)(CC(=O)[O-])C(=O)[O-].O=C([O-])CC(O)(CC(=O)[O-])C(=O)[O-].[Ca+2].[Ca+2].[Ca+2] [Calcium citrate, calcium citrate]
Positive Case Nos. of chondrocyte (collagen I immunohistochemical staining) [1]: 0 (0%)** | Positive percentage of collagen I by immunohistochemical staining, chondrocyte [1]: 0 (0%)** | Formation of new bone ([2]; 10 weeks): less than those of the blank-control group | Positive Case Nos. of osteocyte (mRNA of collagen I) [3]: 2 | Positive percentage of mRNA of collagen I, osteocyte [3]: 33.3% | Positive Case Nos. of chondrocyte (mRNA of collagen I) [4, 5]: 0 (0%) | Positive percentage of mRNA of collagen I, chondrocyte [4, 5]: 0 (0%)

O=P([O-])([O-])OCCO.[Na+].[Na+] [Sodium hydroxyethyl phosphate, sodium hydroxyethyl phosphate]
Positive Case Nos. of chondrocyte (collagen I immunohistochemical staining) [1]: 2 | Positive percentage of collagen I by immunohistochemical staining, chondrocyte [1]: 33.3% | Articular cartilage / cartilage matrix ([2]; 10 weeks): developed retrograde affection | Bone trabeculae in cancellous bone (figure legends) [2]: excessive and disorganized | Staining of glycogen in cancellous bone (figure legends) ([2]; histochemical staining of glycogen, FIGS. 8, 13, 14): less glycogen | Positive Case Nos. of osteocyte (mRNA of collagen I) [3]: 2 | Positive percentage of mRNA of collagen I, osteocyte [3]: 33.3%

calcium L-threonate
Positive percentages of collagen I by immunohistochemistry, comparison of groups ([1]; rat, in vivo): relatively higher | Nourishing blood vessels of the bone ([2]; 10 weeks): increased | Articular cartilage / cartilage matrix ([2]; 10 weeks): Cartilage collagen fibers and matrix thickened | Formation of new bone ([2]; 10 weeks): increased | Bone trabeculae in cancellous bone (figure legends) [2]: thick, dense and ordered | Osteocollagenous fibers by silver staining (figure legends) ([2]; silver staining, FIGS. 9, 10, 11, 20): parallel, regular and abundant | Positive percentage of mRNA of collagen I compared with Model-control group ([3]; rat, in vivo): significantly higher than Model-control group | Expression percentage of mRNA of collagen I compared with model-control group ([4]; rat, in vivo): significantly higher than that of model-control group
